Assay results as given in patent US10647680B2, “Urea compound, preparation method therefor and medical use thereof” (Ancureall Pharmaceutical (Shanghai) Co., Ltd., priority 2016, dated 2020).

Key:
RS4; 11 (FLT3 wild type) = assay: In vitro growth inhibition (GI50), RS4; 11; type: cell-based, human; conditions: Homo sapiens, RS4-11; Cell lines of leukemia; read-out: GI 50 RS4: 11 FLT3 (WT)
U937 (FLT3 wild-type) = assay: In vitro growth inhibition (GI50), U937; type: cell-based; conditions: Homo sapiens, U-937; Cell lines of leukemia; read-out: GI 50 U937 FLT 3(WT)
[1] = tested on: MOLM-13 (FLT3 ITD+/− mutant type); assay: In vitro growth inhibition (GI50), MOLM-13; type: cell-based, human; conditions: Homo sapiens, MOLM-13; Cell lines of leukemia; read-out: GI 50 MOLM-13 FLT3 (ITD+/−)
[2] = tested on: KG-1 (expressing FGFR1OP2-FGFR1 fusion protein); assay: In vitro growth inhibition (GI50), KG-1; type: cell-based; conditions: Homo sapiens; Cell lines of leukemia; read-out: GI 50 KG-1 FGFR1OP 2-FGFR1
[3] = tested on: Kasumi-1 (c-Kit N822K mutant type); assay: In vitro growth inhibition (GI50), Kasumi-1; type: cell-based; conditions: Homo sapiens, Cell lines of leukemia, read-out: GI 50 Kasumi-1 Kit (N822K)
Summary of the method: (§1)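 After 3–5 days of treatment (top concentration 5,000 nM, serially diluted 2- or 10-fold to 0.01 nM, solvent ≤1%), viability was read by CCK8 at OD450. Growth rate was normalised to the time-zero and solvent-control wells, and GI50 was derived from the curve. Cultures in RPMI1640 + 10% FBS.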

HL-60 (FLT3 wild type) = assay: In vitro growth inhibition (GI50), HL-60; type: cell-based; conditions: Homo sapiens, Cell lines of leukemia, read-out: GI 50 HL60 FLT3 (WT)
Summary of the method: as §1

[4] = tested on: RAMOS (positive expression of Brutons tyrosine protein kinase); assay: In vitro growth inhibition (GI50), RAMOS; type: cell-based; conditions: Homo sapiens, Cell lines of leukemia, read-out: GI 50 Ramos BTK
[5] = tested on: MV4-11 (FLT3 ITD+/+ mutant type); assay: In vitro growth inhibition (GI50), MV4-11; type: cell-based, human; conditions: Homo sapiens, MV4-11; Cell lines of leukemia; read-out: GI 50 MV4-11 FLT3 (ITD +/+)
[6] = tested on: K562 (FLT3 negative expression, positive expression of BCR-ABL fusion protein); assay: In vitro growth inhibition (GI50), K562; type: cell-based; conditions: Homo sapiens, Cell lines of leukemia, read-out: GI 50 K562 BCR-ABL
[7] = tested on: OCI-AML3 (NPMc+ mutant type); assay: In vitro growth inhibition (GI50), OCI-AML3; type: cell-based; conditions: Homo sapiens, OCI-AML-3; Cell lines of leukemia; read-out: GI 50 OCI- AML3 NPMc+

Measured: GI50

CC(C)(C)c1cc(NC(=O)Nc2ccc(-n3cnc4cc(OC(=O)N5CCOCC5)ccc43)cc2)no1 [Compound 15, 1-{4-[3-(5-tert-butyl-isoxazol-3-yl)-carbamido]-phenyl}-1H-benzimidazol-5-yl morpholin-4-carboxylate]
0.0001 to 0.001 µM: [1] | [5]
> 1 µM: all other assays above

CC(C)(C)c1cc(NC(=O)Nc2ccc(-n3cnc4ccccc43)cc2)n(-c2ccccc2F)n1 [Compound 109, 1-(4-benzimidazol-1-yl-phenyl)-3-[5-tert-butyl-2-(2-fluoro-phenyl)-2H-pyrazol-3-yl]-urea]
0.001 to 0.01 µM: [1] | [5]
0.1 to 1 µM: RS4; 11 (FLT3 wild type) | [6]
> 1 µM: all other assays above

O=C(Nc1ccc(-n2cnc3ccccc32)cc1)Nc1nncs1 [Compound 62, 1-(4-benzimidazol-1-yl-phenyl)-3-[1,3,4]thiadiazol-2-yl-urea]
> 1 µM: all assays above

CNC(=O)c1cc(Oc2ccc3c(c2)ncn3-c2ccc(NC(=O)n3nc(C(C)(C)C)cc3N)cc2)ccn1 [Compound 127, 4-(1-{4-[(5-amino-3-tert-butyl-pyrazol-1-carbonyl)-amino]-phenyl}-1H-benzimidazol-5-yloxy)-pyridin-2-carboxylic acid methylamide]
0.1 to 1 µM: [1] | [5]
> 1 µM: all other assays above

CC(C)(C)c1cc(NC(=O)Nc2ccc(-n3ncc4cccc(F)c43)cc2)no1 [Compound 47, 1-(5-tert-butyl-isoxazol-3-yl)-3-[4-(7-fluoro-indazol-1-yl)-phenyl]-urea]
0.1 to 1 µM: [1] | [5]
> 1 µM: all other assays above

CC(C)(C)c1cc(N)n(C(=O)Nc2ccc(-n3cnc4cc(OCCN5CCOCC5)ccc43)cc2)n1 [Compound 119, 5-amino-3-tert-butyl-pyrazol-1-carboxylic acid {4-[5-(2-morpholin-4-yl-ethoxyl)-benzimidazol-1-yl]-phenyl}-amide]
0.001 to 0.01 µM: [1] | [5]
> 1 µM: all other assays above

O=C(Nc1ccc(-n2cnc3ccccc32)cc1)Nc1cc(C(F)(F)F)n[nH]1 [Compound 67, 1-(4-benzimidazol-1-yl-phenyl)-3-(5-trifluoromethyl-2H-pyrazole-3-yl)-urea]
> 1 µM: [7]
0.0001 to 0.001 µM: [1] | [5]
0.1 to 1 µM: all other assays above

CC(C)(C)c1cc(N)n(C(=O)Nc2ccc(-n3cnc4cc(OCC5CCCO5)ccc43)cc2)n1 (centres unmarked) [Compound 123, 5-amino-3-tert-butyl-pyrazol-1-carboxylic acid {4-[5-(tetrahydro-furan-2-ylmethoxy)-benzimidazol-1-yl]-phenyl}-amide]
0.001 to 0.01 µM: [1] | [5]
> 1 µM: all other assays above

CCCCN(CCCC)CCCOc1ccc2c(c1)ncn2-c1ccc(NC(=O)Nc2cc(C(C)(C)C)n[nH]2)cc1 [Compound 82, 1-(5-tert-butyl-2H-pyrazol-3-yl)-3-{4-[5-(3-dibutylaminopropoxy)-benzimidazol-1-yl]-phenyl}-urea]
0.0001 to 0.001 µM: [1] | [5]
0.1 to 1 µM: U937 (FLT3 wild-type) | HL-60 (FLT3 wild type) | [4]
> 1 µM: all other assays above

CC(C)(C)c1cc(NC(=O)Nc2ccc(-n3c(Cl)nc4ccccc43)cc2)no1 [Compound 36, 1-(5-tert-butyl-isoxazol-3-yl)-3-[4-(2-chlorobenzimidazol-1-yl)-phenyl]-urea]
0.1 to 1 µM: [1] | [5]
> 1 µM: all other assays above

Cc1cc2ncn(-c3ccc(NC(=O)Nc4cc(C(C)(C)C)on4)cc3)c2cc1C [Compound 32, 1-(5-tert-butyl-isoxazol-3-yl)-3-[4-(5,6-dimethyl-benzimidazol-1-yl)-phenyl]-urea]
0.001 to 0.01 µM: [1] | [5]
> 1 µM: all other assays above

CCOC(=O)COc1ccc2c(c1)ncn2-c1ccc(NC(=O)Nc2cc(C(C)(C)C)n[nH]2)cc1 [Compound 88, ethyl (1-{4-[3-(5-tert-butyl-2H-pyrazol-3-yl)-carbamido]-phenyl}-H-benzimidazol-5-yloxy)-acetate]
0.001 to 0.01 µM: [1] | [5]
> 1 µM: all other assays above

CCOC(=O)c1ccc(-n2nc(C(C)(C)C)cc2NC(=O)Nc2ccc(-n3cnc4ccccc43)cc2)cc1 [Compound 111, ethyl 4-{5-[3-(4-benzimidazol-1-yl-phenyl)-carbamido]-3-tert-butyl-pyrazol-1-yl}-benzoate]
0.1 to 1 µM: RS4; 11 (FLT3 wild type) | [6]
0.001 to 0.01 µM: [1] | [5]
> 1 µM: all other assays above

O=C(Nc1ccc(-n2cnc3ccccc32)cc1)Nc1nccs1 [Compound 60, 1-(4-benzimidazol-1-yl-phenyl)-3-thiazol-2-yl-urea]
0.1 to 1 µM: [2]
> 1 µM: all other assays above

CC(C)(C)c1cc(NC(=O)Nc2ccc(-n3cnc4cc(OCCN5CCCCCC5)ccc43)cc2)[nH]n1 [Compound 91, 1-{4-[5-(2-azepan-1-yl-ethoxy)-benzimidazol-1-yl]-phenyl}-3-(5-tert-butyl-2H-pyrazol-3-yl)-urea]
0.0001 to 0.001 µM: [1] | [5]
> 1 µM: all other assays above

CC(C)(C)c1cc(NC(=O)Nc2ccc(-n3cnc4cc(OCc5cccc(F)c5)ccc43)cc2)[nH]n1 [Compound 93, 1-(5-tert-butyl-2H-pyrazol-3-yl)-3-{4-[5-(3-fluoro-benzyloxy)-benzimidazol-1-yl]-phenyl]-urea]
0.001 to 0.01 µM: [1] | [5]
> 1 µM: all other assays above

Cc1cc(F)cc2ncn(-c3ccc(NC(=O)Nc4cc(C(C)(C)C)on4)cc3)c12 [Compound 33, 1-(5-tert-butyl-isoxazol-3-yl)-3-[4-(5-fluoro-7-methyl-benzimidazol-1-yl)-phenyl]-urea]
0.001 to 0.01 µM: [1] | [5]
0.1 to 1 µM: HL-60 (FLT3 wild type)
> 1 µM: all other assays above
